Tests used:
[1] = Stability (heat, lyophilisation, storage, enzymes, pH); type: physicochemical
Description: BuGro™ and the individual activity Peaks 1, 2 and 3 are each stable to 60 minutes boiling when in a heat-stable buffer such as 50 mM Tris-HCl, pH 7.5 or phosphate buffered saline (PBS). All are fully stable to lyophilisation, and if maintained in a lyophilised form, crude BuGro™ is 90-95% stable to storage at 4° C. for at least 2 years.

[2] = system: H. alvei; test: Effect of additions on synthesis of BuGro activity by H. alvei in M9 minimal media; type: cell-based, Hafnia alvei; settings: added at inoculum stage to H. alvei M9 culture: 5% supernatant (approx. 50 units/ml) or 100 μM norepinephrine; listed as NE
Description: Therefore, H. alvei was inoculated at 2×10^6 CFU/ml into M9 minimal media supplemented with 0.4% (w/v) glucose only (ie no addition, N/A), or with 5% culture supernatant from a previous H. alvei M9 culture (approximately 50 units/ml) (HA), or with 100 μM norepinephrine (NE). The cultures were incubated at 37° C. in a rotatory shaking incubator for 18 hrs (final cell density: 2.17, 2.32 and 2.39×10^8 CFU/ml). Bacteria were removed by centrifugation at 10,000 g for 15 minutes, and the resulting culture supernatant was sterilised by passage through a 0.2 micron stericup filter. The sterile supernatant was assayed at various volumes using test strain E. coli E2348/69 inoculated at 10^2 CFU/ml into serum-SAPI media and incubated statically for 17 hrs at 37° C. in a humidified CO2 incubator. Growth levels were measured using Luria agar and pour plate analysis.

[3] = system: E. coli; settings: serum-based media; Table 2, prior art WO 98/53047; cited from earlier work

stability once synthesised in minimal media such as M9 [1]	Structure (SMILES)	effect on synthesis of BuGro activity [2]	effect on Bacxell synthesis [3]
highly unstable	O=C(N[C@H]1COC(=O)[C@@H](NC(=O)c2cccc(O)c2O)COC(=O)[C@@H](NC(=O)c2cccc(O)c2O)COC1=O)c1cccc(O)c1O [enterobactin]	–	–
–	NC[C@H](O)c1ccc(O)c(O)c1 [norepinephrine]	not induced	4. Induced by norepinephrine, but also

— US20100099132A1, “BACTERIAL GROWTH INDUCER” (priority 2007, published 2010)
